According to ChEMBL document CHEMBL2029300, “Discovery of a Potent Retinoid X Receptor Antagonist Structurally Closely Related to RXR Agonist NEt-3IB” (ACS Med Chem Lett, 2011):
Active and inactive are the calls of the source. The rule behind the calls is not given here.

Assays:
[1] = target: T1, Retinoic acid receptor RXR-alpha (Homo sapiens) (UniProt P19793); test: (§1) Antagonist activity at RXRalpha expressed in COS1 cells assessed as inhibition of NEt-TMN-induced luciferase activity after 18 hrs by reporter gene assay relative to LGD1069; type: functional, cell-based; conditions: COS-1
T1 sequence (whole entry): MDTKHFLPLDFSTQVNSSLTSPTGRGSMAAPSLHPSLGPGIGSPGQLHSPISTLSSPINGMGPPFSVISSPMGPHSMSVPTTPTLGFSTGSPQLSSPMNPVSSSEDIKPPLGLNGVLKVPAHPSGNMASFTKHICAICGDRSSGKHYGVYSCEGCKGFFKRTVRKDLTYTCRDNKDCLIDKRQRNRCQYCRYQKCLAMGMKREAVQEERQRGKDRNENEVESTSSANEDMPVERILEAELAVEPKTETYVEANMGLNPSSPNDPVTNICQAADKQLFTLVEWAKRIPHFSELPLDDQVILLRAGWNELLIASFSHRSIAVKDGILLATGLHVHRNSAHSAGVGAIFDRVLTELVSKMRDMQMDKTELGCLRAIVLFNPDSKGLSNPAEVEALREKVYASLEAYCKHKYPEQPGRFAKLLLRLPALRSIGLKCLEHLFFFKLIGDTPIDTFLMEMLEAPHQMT

[2] = target: T2, Retinoic acid receptor RXR-alpha (Homo sapiens, UniProt P19793); test: as §1; type: functional, cell-based, COS-1
T2 sequence (P19793 whole entry): T1 sequence (whole entry)

[3] = target: T2, Retinoic acid receptor RXR-alpha; test: Antagonist activity at RXRalpha expressed in COS1 cells assessed as inhibition of NEt-3IP-induced luciferase activity after 18 hrs by reporter gene assay relative to LGD1069; type: functional, cell-based, COS-1

Activity [1]	Kb [2]	Kb [3]	Compound
Active	77.6 nM		CCCCCCOc1cc2c(cc1N(C)c1ncc(C(=O)O)cn1)C(C)(C)CCC2(C)C
Active			CCN(c1ccc(C(=O)O)cn1)c1cc(OCC(C)C)c(C(C)C)cc1Nc1ccccc1
Active	5.89 nM	5.5 nM	CCN(c1ccc(C(=O)O)cn1)c1cc(OCC(C)C)c(C(C)C)cc1/C=C/c1ccccc1
inactive			CCN(c1ccc(C(=O)O)cn1)c1cc(OCC(C)C)c(C(C)C)cc1-c1ccccc1
